Measurements: article PMC6248945, “Antibacterial properties of the pituitary adenylate cyclase-activating polypeptide: A new human antimicrobial peptide” (PLoS ONE, 2018)
Converted amounts (≈) assume the structure as drawn. Like-named read-outs stand apart in the source and are kept apart here. Where a SMILES comes first, the peptide text is derived from it.

Assays:
[1] = test system: Serratia marcescens (ATCC14756); conditions: ATCC14756, 20 h
[2] = test system: Burkholderia cenocepacia (J2315); conditions: 20 h
[3] = test system: Pseudomonas putida (KT2440)
Bacillus subtilis (PY79) = conditions: PY79, 20 h
[4] = test system: Bacillus circulans (LSPQ3543); conditions: 20 h
[5] = test system: Burkholderia cenocepacia (LMG19240); conditions: CLSI microdilution, MHB, 37 °C, 20h, OD read-out; at least triplicate
[6] = test system: Escherichia coli ATCC25922; conditions: ATCC25922, 20 h
[7] = test system: Bacillus amyloliquefaciens (LMG22478); conditions: LMG22478, 20 h
[8] = test system: Burkholderia thailendensis (ATCC700388); conditions: CLSI microdilution, MHB, 37 °C, 20h, OD read-out; at least triplicate
[9] = test system: Pseudomonas aeruginosa (PA14); conditions: PA14, 20 h
Escherichia coli (JM109) = test: MIC, CLSI microdilution; type: cell-based; conditions: MHB, 37 °C, 20h, OD read-out, at least triplicate
Experimental: Assays were performed according to the CLSI microdilution method. Briefly, the bacterial strains were inoculated and allowed to reach an OD600 of 0.08–0.13 prior to dilution to 10^6 CFU/mL in Mueller-Hinton broth (MHB). A bacterial suspension (50 μL) was then added to each well of a 96-well microplate containing serially diluted peptide solutions (50 μL in MHB) and incubated at 37 °C for 20h. A well containing sterilized medium was used as a sterility control and another well containing no added peptide served as a growth control.

[10] = test system: Burkholderia cenocepacia (CEP0511 Gvar3b); conditions: CLSI microdilution, MHB, 37 °C, 20h, OD read-out; at least triplicate
Bacillus subtilis (2597) = conditions: 2597, 20 h
[11] = test system: Burkholderia cenocepacia (LMG18829); conditions: LMG18829, 20 h
[12] = test system: Bacillus cereus (ATCC11778); conditions: ATCC11778, 20 h
[13] = test system: Pseudomonas fluorescens (MF37); conditions: 20 h
[14] = test system: Staphylococcus aureus (Newman); conditions: 20 h
Bacillus velezensis = conditions: 20 h
[15] = test system: Staphylococcus aureus (ATCC6538#P); conditions: ATCC6538, 20 h
[16] = test system: Burkholderia cenocepacia (K56-2); conditions: 20 h
[17] = test system: Actinobacillus pleuropneumoniae (4074); conditions: 20 h
[18] = test system: Pseudomonas aeruginosa (ATCC33350-Sero-2); conditions: ATCC33350, 20 h
[19] = test system: Escherichia coli (O157 :H7); conditions: CLSI microdilution, MHB, 37 °C, 20h, OD read-out; at least triplicate
Red blood cells = test: Haemolytic activity; type: cell-based; conditions: human red blood cells in PBS, 30 min or 3h, 37°C; at 45 μg/mL (PACAP38) or 37 μg/mL (PACAP(9–38)); absorbance 545 nm; 3 independent experiments in triplicate
Experimental: All experimental procedures were performed in accordance with regulations and ethical guidelines and approved by the institutional committee of the Institut National de la Recherche Scientifique-Institut Armand-Frappier. Blood from healthy human volunteers was collected into sodium citrate-buffered vacutainers. Blood donations were obtained from informed and consenting individuals according to institutionally approved procedures. Red blood cells were pelleted (700 x g; 10 min), washed three times with 9 volumes of PBS by centrifugation (700 x g; 10 min), and then resuspended in PBS. […] PBS-incubated red blood cells were considered as negative control and maximum lysis of erythrocytes was obtained by incubating the cells with 0.1% (v/v) Triton X-100. At the end of the incubation period, cells were pelleted (700 x g, 10 min) and 100 μL of each supernatant was used to evaluate the release of hemoglobin by measuring the absorbance at 545 nm. Results were obtained from 3 independent experiments performed in triplicate.

[20] = relative to PACAP38; cited from earlier work
DPP-IV = test system: DPP-IV; set-up: method as in PMID 18353507; conditions: cited from earlier work

| SMILES | MIC, Serratia marcescens (ATCC14756) [1] | MIC, Burkholderia cenocepacia (J2315) [2] | MIC, Bacillus subtilis (PY79) (Bacillus subtilis (PY79)) | MIC, Bacillus circulans (LSPQ3543) [4] | MIC, Burkholderia cenocepacia (LMG19240) [5] | MIC, Escherichia coli ATCC25922 [6] | MIC, Bacillus amyloliquefaciens [7] | MIC, Burkholderia thailendensis (ATCC700388) [8] | MIC, Pseudomonas aeruginosa (PA14) [9] | MIC, Escherichia coli (JM109) (Escherichia coli (JM109)) | MIC, Burkholderia cenocepacia (CEP0511 Gvar3b) [10] | MIC, Bacillus subtilis (2597) (Bacillus subtilis (2597)) | MIC, Burkholderia cenocepacia (LMG18829) [11] | MIC, Bacillus cereus (ATCC11778) [12] | MIC, Pseudomonas fluorescens (MF37) [13] | MIC, Staphylococcus aureus (Newman) [14] | MIC, Bacillus velezensis (Bacillus velezensis) | MIC, Staphylococcus aureus (ATCC6538#P) [15] | MIC, Burkholderia cenocepacia (K56-2) [16] | MIC, Actinobacillus pleuropneumoniae [17] | other results |
| --- | --- | --- | --- | --- | --- | --- | --- | --- | --- | --- | --- | --- | --- | --- | --- | --- | --- | --- | --- | --- | --- |
| CC[C@H](C)[C@H](NC(=O)CNC(=O)[C@H](CC(=O)O)NC(=O)[C@H](CO)NC(=O)[C@@H](N)Cc1cnc[nH]1)C(=O)N[C@@H](Cc1ccccc1)C(=O)N[C@H](C(=O)N[C@@H](CC(=O)O)C(=O)N[C@@H](CO)C(=O)N[C@@H](Cc1ccc(O)cc1)C(=O)N[C@@H](CO)C(=O)N[C@@H](CCCNC(=N)N)C(=O)N[C@@H](Cc1ccc(O)cc1)C(=O)N[C@@H](CCCNC(=N)N)C(=O)N[C@@H](CCCCN)C(=O)N[C@@H](CCC(N)=O)C(=O)N[C@@H](CCSC)C(=O)N[C@@H](C)C(=O)N[C@H](C(=O)N[C@@H](CCCCN)C(=O)N[C@@H](CCCCN)C(=O)N[C@@H](Cc1ccc(O)cc1)C(=O)N[C@@H](CC(C)C)C(=O)N[C@@H](C)C(=O)N[C@@H](C)C(=O)N[C@H](C(=O)N[C@@H](CC(C)C)C(=O)NCC(=O)N[C@@H](CCCCN)C(=O)N[C@@H](CCCNC(=N)N)C(=O)N[C@@H](Cc1ccc(O)cc1)C(=O)N[C@@H](CCCCN)C(=O)N[C@@H](CCC(N)=O)C(=O)N[C@@H](CCCNC(=N)N)C(=O)N[C@H](C(=O)N[C@@H](CCCCN)C(=O)N[C@@H](CC(N)=O)C(=O)N[C@@H](CCCCN)C(N)=O)C(C)C)C(C)C)C(C)C)[C@@H](C)O [compound 1, PACAP38] | >200 µg/mL | 10 µg/mL (≈ 2.21 µM) | 28 µg/mL (≈ 6.18 µM) | 94 µg/mL (≈ 20.7 µM) | >200 µg/mL | >200 µg/mL | 42 µg/mL (≈ 9.26 µM) | >200 µg/mL | >200 µg/mL | >200 µg/mL | >200 µg/mL | >200 µg/mL | >200 µg/mL | >200 µg/mL | >200 µg/mL | >200 µg/mL | 76 µg/mL (≈ 16.8 µM) | >200 µg/mL | >200 µg/mL | 7.5 µg/mL (≈ 1.65 µM) | MIC, Pseudomonas putida (KT2440) ([3]; 20 h): 113 µg/mL (≈ 24.9 µM); MIC, Pseudomonas aeruginosa (ATCC33350-Sero-2) [18]: >200 µg/mL; MIC, Escherichia coli (O157 :H7) [19]: >200 µg/mL; Haemolytic activity (Red blood cells): do not exert a very significant haemolytic activity |
| CC[C@H](C)[C@H](NC(=O)CNC(=O)[C@H](CC(=O)O)NC(=O)[C@H](CO)NC(=O)[C@@H](N)Cc1c[nH]cn1)C(=O)N[C@@H](Cc1ccccc1)C(=O)N[C@H](C(=O)N[C@@H](CC(=O)O)C(=O)N[C@@H](CO)C(=O)N[C@@H](Cc1ccc(O)cc1)C(=O)N[C@@H](CO)C(=O)N[C@@H](CCCNC(=N)N)C(=O)N[C@@H](Cc1ccc(O)cc1)C(=O)N[C@@H](C)C(=O)N[C@@H](CCCCN)C(=O)N[C@@H](CCC(N)=O)C(=O)N[C@@H](CCSC)C(=O)N[C@@H](C)C(=O)N[C@H](C(=O)N[C@@H](C)C(=O)N[C@@H](CCCCN)C(=O)N[C@@H](Cc1ccc(O)cc1)C(=O)N[C@@H](CC(C)C)C(=O)N[C@@H](C)C(=O)N[C@@H](C)C(=O)N[C@H](C(=O)N[C@@H](CC(C)C)C(=O)NCC(=O)N[C@@H](CCCCN)C(=O)N[C@@H](CCCNC(=N)N)C(=O)N[C@@H](Cc1ccc(O)cc1)C(=O)N[C@@H](CCCCN)C(=O)N[C@@H](CCC(N)=O)C(=O)N[C@@H](CCCNC(=N)N)C(=O)N[C@H](C(=O)N[C@@H](CCCCN)C(=O)N[C@@H](CC(N)=O)C(=O)N[C@@H](CCCCN)C(N)=O)C(C)C)C(C)C)C(C)C)[C@@H](C)O [compound 6, [Ala^14,20]PACAP38] (H-HSDGIFTDSYSRYAKQMAVAKYLAAVLGKRYKQRVKNK-NH2) | >200 µg/mL | 8 µg/mL (≈ 1.82 µM) | 3.5 µg/mL (≈ 0.797 µM) | 94 µg/mL (≈ 21.4 µM) | >200 µg/mL | >200 µg/mL | 9 µg/mL (≈ 2.05 µM) | >200 µg/mL | >200 µg/mL | 37 µg/mL (≈ 8.42 µM) | >200 µg/mL | 187 µg/mL (≈ 42.6 µM) | >200 µg/mL | >200 µg/mL | >200 µg/mL | >200 µg/mL | 52 µg/mL (≈ 11.8 µM) | >200 µg/mL | >200 µg/mL | >200 µg/mL | MIC, Pseudomonas putida (KT2440) ([3]; CLSI microdilution, MHB, 37 °C, 20h, OD read-out, at least triplicate): 113 µg/mL (≈ 25.7 µM); Metabolic stability in human plasma [20]: improved metabolic stability; Metabolic stability against DPP-IV (DPP-IV): improved metabolic stability; MIC, Pseudomonas aeruginosa (ATCC33350-Sero-2) [18]: >200 µg/mL; MIC, Escherichia coli (O157 :H7) [19]: 113 µg/mL (≈ 25.7 µM) |
